According to patent publication US20150159169A1, “Plants Tolerant to HPPD Inhibitor Herbicides” (Bayer CropScience AG, priority 2009, published 2015):
Values joined by “and” are separate entries in the source; they are usually repeats but may differ in a detail not shown here. Identical values can stand only once.

Experiments:
[1] = test system: T1 tobacco plants containing FMP27e (Kordia algicida HPPD FMP27); assay: Glasshouse spray trial, % injury; type: in vivo, Nicotiana tabacum; conditions: 7DAT, 100 gAI/ha spray
Description: (§1) T0 Tobacco plants containing either the gene from Arabidopsis coding for HPPD or the gene FMP27e from Kordia algicida coding for FMP27 HPPD, mentioned above (Example 3), were transferred to the glasshouse (28/20° C.), to develop further and produce seeds. Those seeds were harvested and put on soil (ED73 mixed with sand and osmocote Pro) to germinate in the glasshouse (28/20° C.). Three to four weeks later, plantlets were transferred to single pots containing the soil mentioned above. Two weeks later, plants of a size 4-6 cm diameter were sprayed with either • tembotrione at 100 gAI/ha prepared from a WP20 (wettable powder 20%) formulation supplemented with ammonium sulfate and methyl ester raps oil, or • isoxaflutole at 100 gAI/ha prepared from a WP20 formulation supplemented with ammonium sulfate and methyl ester raps oil, or • bicyclopyrone at 100 gAI/ha prepared from a WP20 formulation supplemented with ammonium sulfate and methyl ester raps oil, or • “blind formulation” made from a WP20 formulation without active ingredient (AI) supplemented with ammonium sulfate and methyl ester raps oil, and were then transferred to a growth chamber with adequate light conditions (20000 Lux).
(§2) Table 6: Wild type tobacco plants (A) and T1 populations of tobacco events containing alternatively, the expression cassettes described above having the promoter CaMV 35S, the sequence coding for OTP and the sequence coding for Arabidopsis HPPD (B) or the promoter CaMV35S, the sequence encoding OTP, and the sequence FMP27e coding for the HPPD FMP27 (C). Assessments of herbicidal damage at 7 days after application (DAT) per spray with 100 g AI/ha of tembotrione or isoxaflutole supplemented with ammonium sulfate and methyl ester raps oil. […] Plants belonging to categories (B) and (C) have not been selected for the presence of the respective transgene prior to the herbicide application.

wild type tobacco plants = assay: Glasshouse spray trial, % injury; type: in vivo, Nicotiana tabacum; conditions: 7DAT, 100 gAI/ha spray; individual WT plants; 100% = bleaching as wild type
Description: as §1, §2

[2] = test system: T1 tobacco plants containing Arabidopsis HPPD; assay: Glasshouse spray trial, % injury; type: in vivo, Nicotiana tabacum; conditions: 7DAT, 100 gAI/ha spray
Description: as §1, §2

wild-type soybean shoots = assay: Soybean shoot greening on isoxaflutole selection; type: cell-based; conditions: same amount of isoxaflutole
From the text: (§3) Soybean transformation was achieved using methods well known in the art, such as the one described using the Agrobacterium tumefaciens mediated transformation soybean half-seed explants described by Paz et al. (2006, Plant cell Rep. 25:206). Transformants were identified using Isoxaflutole as selection marker. The appearance of green shoots was observed, and documented as an indicator of tolerance to the herbicide isoxaflutole. […] Tolerant green shoots were transferred to rooting media or grafted. Rooted plantlets were transferred to the glasshouse after an acclimation period.

[3] = test system: transgenic soybean shoots (FMP27 protein); assay: Soybean shoot greening on isoxaflutole selection; type: cell-based; conditions: isoxaflutole as selection marker
From the text: as §3

CS(=O)(=O)c1cc(C(F)(F)F)ccc1C(=O)c1cnoc1C1CC1 [Isoxaflutole, (5-cyclopropyl-4-isoxazolyl)[2-(methylsulfonyl)-4-(trifluoromethyl)phenyl]methanone]
% injury ([1]; line 121, individual T1 plants): 0% (4×) and 1% and 2% and 20%
% injury ([1]; line 129, individual T1 plants): 0% (4×) and 1% (3×) and 2% (3×) and 5% and 10% (2×)
% injury ([1]; line 218, individual T1 plants): 0% (9×) and 1% (3×) and 2% and 3% and 5%
% injury (wild type tobacco plants): 99% (2×) and 100% (4×) and 98%
% injury ([2]; line 252, individual T1 plants): 30% and 70% and 95% and 98% (2×) and 99% (4×) and 100% (4×)
% injury ([2]; line 258, individual T1 plants): 100%
% injury ([2]; line 327, individual T1 plants): 10% and 20% and 60% (2×) and 70% and 80% and 95% and 98% and 99% and 100% (6×)
appearance of shoots treated with isoxaflutole (wild-type soybean shoots): entirely bleached
transgenic tested shoots showing normal greening [3]: 1%
